Results: patent US20060160086A1, “Method for continuous detection of an analyte, trifunctional detecting reagent used and detecting device” (Commissariat A L'Energie Atomique, priority 2002, published 2006)
Ends that are not written are not given here. * marks the point of attachment. Biotin = O=C1N[C@H]2[C@H](CS[C@H]2CCCCC(=O)*)N1

Key:
monoclonal antibody SP31 = conditions: peptide analog of substance P comprising an alanine at position 10 [Ala^10]; cited from earlier work
neutravidin = biological target: T1, neutravidin (Gallus gallus, UniProt P02701); assay: Attachment of the fluorescein-labeled tripod Y to neutravidin-coated microtitration plates (fluorescence); type: binding; conditions: neutravidin-coated microplate, 3 hours at ambient temperature, excitation 485 nm / emission 530 nm
T1 construct: purchased Pierce 31 000
T1 sequence (P02701 25-152): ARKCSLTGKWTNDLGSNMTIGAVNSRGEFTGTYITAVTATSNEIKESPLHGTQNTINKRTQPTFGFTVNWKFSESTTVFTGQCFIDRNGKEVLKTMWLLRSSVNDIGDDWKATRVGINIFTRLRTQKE
Method: 100 μl of a solution of neutravidin (sold under the reference 31 000 by the company Pierce) at 5 μg/ml in a 0.1 M potassium phosphate buffer, pH 7.4 are deposited into the wells of black microplates sold under the name High Bind Matrix by the company VWR (reference 80120696). After 16 hours at ambient temperature, the plates are washed with washing buffer and then saturated by depositing 300 μl/well of saturation buffer for 16 hours at ambient temperature. The plates are stored with the same buffer (300 μl/well) at 4° C.
A dilution range for the tripod Y (labeled with fluorescein) synthesized above in example 4, in 0.1 M potassium phosphate buffer, pH 7.4, is prepared by producing a first point of the range at a concentration of 0.5 μM, and then 4 successive ⅓ dilutions (i.e. 0.167 μM; 0.055 μM; 0.0185 μM and 6.2×10^−3 μM). […] The plate is read with an analyst AD system fluorimeter (LJL Biosystem) for reading microplates, at an excitation wavelength of 485 nm and at an emission wavelength of 530 nm, which are the excitation and emission wavelengths corresponding to fluorescein.
The curves obtained with neutravidin (black square) and without neutravidin (black triangle: control) are represented in the attached FIG. 2, in which the fluorescence (in arbitrary units) is expressed as a function of the concentration of tripod Y in accordance with the invention (μM).

Substance	cross reactivity with substance P for the monoclonal antibody SP31 (monoclonal antibody SP31) [%]	concentration of tripod up to which fluorescence increases proportionally, then plateau (saturation of the neutravidin binding sites) (neutravidin) [µM]
KSSK(Biotin)RPAPQQFFGAM-NH2 [substance P analog]	13	–
tripod: substance P analog (SEQ ID No. 2) labeled with fluorescein; biotin for attachment to neutravidin support (GATCTGCTGGCATCT; fluorescein label and biotin, positions not given here)	–	0.17
